The text below walks through data of patent US11866450B2, “Modulators of Cystic Fibrosis Transmembrane Conductance regulator, pharmaceutical compositions, methods of treatment, and process for making the modulators” (priority 2018, dated 2024).

Like-named read-outs stand apart in the source and are kept apart here.

The conditions of data set [1]: snar bond, DMSO.
For data set [2], the target named is CFTR-mediated chloride transport (Homo sapiens, UniProt P13569). It counts as cell-based. To be noted: enteroid cells incubated with test compound 18-24 hours, acute 10 μM forskolin and 300 nM Compound III; for Max. Activity: % of chloride transport with 3 μM Compound A, 3 μM Compound II and 300 nM acute Compound III triple combination control. A digest of the protocol: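 Human intestinal enteroid cells incubated with compound 18–24 h at 37° C., then membrane potential dye (FLIPR) read 15 min after chloride-free stimulation with 10 μM forskolin, 100 μM IBMX and 300 nM Compound III. AUC expressed as % of triple-combination control (3 μM Compound A, 3 μM Compound II, 300 nM Compound III).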
CFTR-mediated chloride transport, sequence (P13569 whole entry, looked up): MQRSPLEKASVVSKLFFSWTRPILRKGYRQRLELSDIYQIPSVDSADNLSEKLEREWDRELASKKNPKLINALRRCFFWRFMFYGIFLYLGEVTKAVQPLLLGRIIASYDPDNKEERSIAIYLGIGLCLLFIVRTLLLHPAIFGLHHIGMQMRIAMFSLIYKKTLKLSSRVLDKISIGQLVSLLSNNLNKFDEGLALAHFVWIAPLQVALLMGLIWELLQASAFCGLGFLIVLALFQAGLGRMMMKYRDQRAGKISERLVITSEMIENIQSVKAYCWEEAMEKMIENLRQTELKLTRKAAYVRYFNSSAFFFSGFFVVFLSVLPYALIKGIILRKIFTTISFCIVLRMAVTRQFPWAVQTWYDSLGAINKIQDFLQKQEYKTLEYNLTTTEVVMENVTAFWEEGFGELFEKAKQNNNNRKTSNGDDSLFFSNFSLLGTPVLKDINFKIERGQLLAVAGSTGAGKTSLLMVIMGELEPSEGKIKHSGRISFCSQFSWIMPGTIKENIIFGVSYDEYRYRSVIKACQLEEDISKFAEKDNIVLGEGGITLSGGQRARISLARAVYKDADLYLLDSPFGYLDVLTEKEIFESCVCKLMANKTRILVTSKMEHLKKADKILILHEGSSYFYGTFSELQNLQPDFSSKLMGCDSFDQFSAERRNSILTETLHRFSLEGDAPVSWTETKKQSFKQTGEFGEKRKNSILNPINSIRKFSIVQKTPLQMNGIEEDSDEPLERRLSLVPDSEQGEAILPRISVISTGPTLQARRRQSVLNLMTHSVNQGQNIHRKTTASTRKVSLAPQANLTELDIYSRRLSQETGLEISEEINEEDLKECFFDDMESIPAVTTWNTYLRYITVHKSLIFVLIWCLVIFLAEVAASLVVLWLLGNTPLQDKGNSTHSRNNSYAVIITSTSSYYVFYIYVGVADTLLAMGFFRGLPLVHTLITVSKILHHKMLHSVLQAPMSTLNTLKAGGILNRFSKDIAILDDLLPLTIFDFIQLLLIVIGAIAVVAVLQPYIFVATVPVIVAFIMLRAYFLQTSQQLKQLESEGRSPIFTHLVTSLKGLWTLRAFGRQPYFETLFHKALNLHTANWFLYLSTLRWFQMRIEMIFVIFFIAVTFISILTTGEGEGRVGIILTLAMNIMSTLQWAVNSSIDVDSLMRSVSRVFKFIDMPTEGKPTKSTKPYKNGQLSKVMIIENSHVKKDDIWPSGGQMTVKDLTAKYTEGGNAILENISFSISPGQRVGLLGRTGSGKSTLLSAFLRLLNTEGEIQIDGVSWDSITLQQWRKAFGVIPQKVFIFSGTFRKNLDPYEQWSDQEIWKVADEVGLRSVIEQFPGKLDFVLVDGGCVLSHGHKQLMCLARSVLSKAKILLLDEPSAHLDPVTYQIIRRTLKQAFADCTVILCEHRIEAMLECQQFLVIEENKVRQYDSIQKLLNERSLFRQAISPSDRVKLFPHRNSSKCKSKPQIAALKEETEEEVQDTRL

As for `Cc1c2cnn1CCCC1CN(c3nc(-n4ccc(OCCC5(C(F)(F)F)CC5)n4)ccc3C(=O)NS2(=O)=O)C(C)(C)C1` (stereo not drawn) [Compound 18, 20,20,22-trimethyl-4-(3-{2-[1-(trifluoromethyl)cyclopropyl]ethoxy}-1H-pyrazol-1-yl)-10λ^6-thia-1,3,9,13,14-pentaazatetracyclo[16.2.1.111,14.02,7]docosa-2,4,6,11(22),12-pentaene-8,10,10-trione], in data set [1] (from Cc1c(S(=O)(=O)NC(=O)c2ccc(-n3ccc(OCCC4(C(F)(F)F)CC4)n3)nc2Cl)cnn1CCCC1CNC(C)(C)C1, 14-membered ring, K2CO3/CsF/3A MS, 31.9 mM, 150.0 °C), the ring closure, yield after HPLC came out at 7%. Moreover, in data set [2], the EC50 (usually the concentration at which the effect is half-maximal) was under 1000 nM and the “Max. Activity” value is recorded as “++ (++ is 30-60%)”.
The molecule `Cc1ccc2nc1S(=O)(=O)NC(=O)c1ccc(-n3ccc(OCCC4(C(F)(F)F)CC4)n3)nc1N1CC(CCCN2)CC1(C)C` (stereo not drawn) [Compound 129, 12,12,22-Trimethyl-8-(3-{2-[1-(trifluoromethyl)cyclopropyl]ethoxy}-1H-pyrazol-1-yl)-2λ^6-thia-3,9,11,18,23-pentaazatetracyclo[17.3.1.111,14.05,10]tetracosa-1(23),5(10),6,8,19,21-hexaene-2,2,4-trione] had a ring closure, yield after HPLC in data set [1] (from Cc1ccc(NCCCC2CN(C(=O)OC(C)(C)C)C(C)(C)C2)nc1S(=O)(=O)NC(=O)c1ccc(-n2ccc(OCCC3(C(F)(F)F)CC3)n2)nc1Cl, 15-membered ring, K2CO3/CsF/3A MS, 79.1 mM, 140.0 °C, 2 steps) of 34%. Further, in data set [2], the 50% effective concentration (EC50) was under 1000 nM and the “Max. Activity” value was “+++ (+++ is >60%)”.
Consider `CC1(C)CC2CCCNc3cc(ccn3)S(=O)(=O)NC(=O)c3ccc(-n4ccc(OCCC5(C(F)(F)F)CC5)n4)nc3N1C2` (stereo not drawn) [Compound 93, 12,12-dimethyl-8-(3-{2-[1-(trifluoromethyl)cyclopropyl]ethoxy}-1H-pyrazol-1-yl)-2λ^6-thia-3,9,11,18,20-pentaazatetracyclo[17.3.1.111,14.05,10]tetracosa-1(22),5,7,9,19(23),20-hexaene-2,2,4-trione], for which the ring closure, yield after HPLC in data set [1] (from CC(C)(C)OC(=O)N1CC(CCCNc2cc(S(=O)(=O)NC(=O)c3ccc(-n4ccc(OCCC5(C(F)(F)F)CC5)n4)nc3Cl)ccn2)CC1(C)C, 15-membered ring, TFA (Boc off), CsF/K2CO3/3A MS, 26.0 mM, 130.0 °C, 2 steps) turned out to be 30%. Further, in data set [2], the EC50 was under 1000 nM and the “Max. Activity” value is “+++ (+++ is >60%)”.
As to `CN1CCCC2CN(c3nc(-n4ccc(OCCC(C5CC5)C5CC5)n4)ccc3C(=O)NS(=O)(=O)c3cccc1n3)C(C)(C)C2` (stereo not drawn) [Compound 189, 8-[3-(3,3-Dicyclopropylpropoxy)-1H-pyrazol-1-yl]-12,12,18-trimethyl-2λ^6-thia-3,9,11,18,23-pentaazatetracyclo[17.3.1.111,14.05,10]tetracosa-1(22),5,7,9,19(23),20-hexaene-2,2,4-trione], the ring closure, yield after HPLC in data set [1] (from CN(CCCC1CNC(C)(C)C1)c1cccc(S(=O)(=O)NC(=O)c2ccc(-n3ccc(OCCC(C4CC4)C4CC4)n3)nc2Cl)n1, 15-membered ring, K2CO3/CsF/4A MS, 24.8 mM, 130.0 °C, 2 steps) came to 60%. In addition, in data set [2], the EC50 was under 1000 nM and the “Max. Activity” value is recorded as “+++ (+++ is >60%)”.
With `CC1(C)CC2CCCn3ccc(n3)S(=O)(=O)NC(=O)c3ccc(-n4ccc(OCCCC5(C(F)(F)F)CC5)n4)nc3N1C2` (racemic) [Compound 155, 20,20-Dimethyl-4-(3-{3-[1-(trifluoromethyl)cyclopropyl]propoxy}-1H-pyrazol-1-yl)-10λ^6-thia-1,3,9,14,22-pentaazatetracyclo[16.2.1.111,14.02,7]docosa-2(7),3,5,11(22),12-pentaene-8,10,10-trione], the ring closure, yield after HPLC in data set [1] (from CC1(C)CC(CCCn2ccc(S(=O)(=O)NC(=O)c3ccc(-n4ccc(OCCCC5(C(F)(F)F)CC5)n4)nc3Cl)n2)CN1, 14-membered ring, K2CO3/CsF/3A MS, 49.7 mM, 140.0 °C, 16.0 h, 2 steps) is 51%. For the same molecule, in data set [2], the EC50 is under 1000 nM and the “Max. Activity” value is “+++ (+++ is >60%)”.
`CC1(C)CC2CCn3ccc(n3)S(=O)(=O)NC(=O)c3ccc(-n4ccc(OCCCC5(C(F)(F)F)CC5)n4)nc3N1C2` (stereo not drawn) [Compound 273, 19,19-Dimethyl-4-(3-{3-[1-(trifluoromethyl)cyclopropyl]propoxy}-1H-pyrazol-1-yl)-10λ^6-thia-1,3,9,14,21-pentaazatetracyclo[15.2.1.111,14.02,7]henicosa-2,4,6,11(21),12-pentaene-8,10,10-trione] yielded a ring closure, yield after HPLC in data set [1] (from CC1(C)CC(CCn2ccc(S(=O)(=O)NC(=O)c3ccc(-n4ccc(OCCCC5(C(F)(F)F)CC5)n4)nc3Cl)n2)CN1, 13-membered ring, K2CO3/CsF/3A MS, 25.5 mM, 150.0 °C) of 11%. Further, in data set [2], the EC50 was under 1000 nM and the “Max. Activity” value is given as “+ (+ is <30%)”.
The molecule `CC1(C)CC2CN1c1nc(-n3ccc(OCCC4C5(CC5)C45CC5)n3)ccc1C(=O)NS(=O)(=O)c1cccc(n1)NCCO2` (racemic) [Compound 188, 8-[3-(2-{Dispiro[2.0.2.1]heptan-7-yl}ethoxy)-1H-pyrazol-1-yl]-12,12-dimethyl-15-oxa-2λ^6-thia-3,9,11,18,23-pentaazatetracyclo[17.3.1.111,14.05,10]tetracosa-1(23),5(10),6,8,19,21-hexaene-2,2,4-trione] registered a ring closure, yield after HPLC in data set [1] (from CC1(C)CC(OCCNc2cccc(S(=O)(=O)NC(=O)c3ccc(-n4ccc(OCCC5C6(CC6)C56CC6)n4)nc3Cl)n2)CN1, 15-membered ring, K2CO3/CsF/3A MS, 108.4 mM, 140.0 °C, 20.0 h, 2 steps) of 97%. Moreover, in data set [2], the EC50 was under 1000 nM and the “Max. Activity” value is given as “+++ (+++ is >60%)”.
`CC(C)(C)COc1ccn(-c2ccc3c(n2)N2CC(CCNc4cccc(n4)S(=O)(=O)NC3=O)CC2(C)C)n1` (stereo not drawn) [Compound 1, 11-[3-(2,2-dimethylpropoxy)-1H-pyrazol-1-yl]-7,7-dimethyl-17λ^6-thia-2,8,10,16,22-pentaazatetracyclo[16.3.1.15,8.09,14]tricosa-1(21),9(14),10,12,18(22),19-hexaene-15,17,17-trione]: the ring closure, yield after HPLC in data set [1] (from CC(C)(C)COc1ccn(-c2ccc(C(=O)NS(=O)(=O)c3cccc(NCCC4CNC(C)(C)C4)n3)c(Cl)n2)n1, 14-membered ring, K2CO3, 155.0 °C, 62.0 h, 2 steps) came to 10%. In addition, in data set [2], the concentration giving a half-maximal response (EC50) was under 1000 nM and the “Max. Activity” value is listed as “+++ (+++ is >60%)”.
The molecule `CC1(C)CC2CN1c1nc(-n3ccc(OCCC(C4CC4)C4CC4)n3)ccc1C(=O)NS(=O)(=O)c1cccc(n1)NCCO2` (racemic) [Compound 156, 8-[3-(3,3-Dicyclopropylpropoxy)-1H-pyrazol-1-yl]-12,12-dimethyl-15-oxa-2λ^6-thia-3,9,11,18,23-pentaazatetracyclo[17.3.1.111,14.05,10]tetracosa-1(23),5,7,9,19,21-hexaene-2,2,4-trione] displayed a ring closure, yield after HPLC in data set [1] (from CC1(C)CC(OCCNc2cccc(S(=O)(=O)NC(=O)c3ccc(-n4ccc(OCCC(C5CC5)C5CC5)n4)nc3Cl)n2)CN1, 15-membered ring, K2CO3/CsF/3A MS, 121.6 mM, 150.0 °C) of 30%. Also, in data set [2], the 50% effective concentration (EC50) is under 1000 nM and the “Max. Activity” value is reported as “+++ (+++ is >60%)”.
For the molecule `Cc1nn2cc1S(=O)(=O)NC(=O)c1ccc(-n3ccc(OCCC4(C(F)(F)F)CC4)n3)nc1N1CC(CCC2)CC1(C)C` (stereo not drawn) [Compound 19, 12,20,20-trimethyl-4-(3-{2-[1-(trifluoromethyl)cyclopropyl]ethoxy}-1H-pyrazol-1-yl)-10λ^6-thia-1,3,9,13,14-pentaazatetracyclo[16.2.1.111,14.02,7]docosa-2,4,6,11(22),12-pentaene-8,10,10-trione], the ring closure, yield after HPLC in data set [1] (from Cc1nn(CCCC2CNC(C)(C)C2)cc1S(=O)(=O)NC(=O)c1ccc(-n2ccc(OCCC3(C(F)(F)F)CC3)n2)nc1Cl, 14-membered ring, K2CO3/CsF/3A MS, 31.9 mM, 150.0 °C) worked out at 9%. Also, in data set [2], the concentration for a half-maximal effect (EC50) lay within 1000 to 3000 nM and the “Max. Activity” value was “++ (++ is 30-60%)”.
In the case of `CC1(C)CC2CN1c1nc(-n3ccc(OCCC4(C(F)(F)F)CC4)n3)ccc1C(=O)NS(=O)(=O)c1ccn(n1)CCO2` (racemic) [Compound 164, 20,20-Dimethyl-4-(3-{2-[1-(trifluoromethyl)cyclopropyl]ethoxy}-1H-pyrazol-1-yl)-17-oxa-10λ^6-thia-1,3,9,14,22-pentaazatetracyclo[16.2.1.111,14.02,7]docosa-2(7),3,5,11(22),12-pentaene-8,10,10-trione], in data set [1] (from CC(C)(C)OC(=O)N1CC(OCCn2ccc(S(=O)(=O)NC(=O)c3ccc(-n4ccc(OCCC5(C(F)(F)F)CC5)n4)nc3Cl)n2)CC1(C)C, 14-membered ring, K2CO3/CsF/3A MS, 62.6 mM, 140.0 °C, 2 steps), the ring closure, yield after HPLC stood at 30%. Moreover, in data set [2], the EC50 fell in the range of 1000 to 3000 nM and the “Max. Activity” value is “++ (++ is 30-60%)”.
In the case of `Cc1cn2nc1S(=O)(=O)NC(=O)c1ccc(-n3ccc(OCCC4(C(F)(F)F)CC4)n3)nc1N1CC(CCC2)CC1(C)C` (stereo not drawn) [Compound 199, 12,20,20-trimethyl-4-(3-{2-[1-(trifluoromethyl)cyclopropyl]ethoxy}-1H-pyrazol-1-yl)-10λ^6-thia-1,3,9,14,22-pentaazatetracyclo[16.2.1.111,14.02,7]docosa-2(7),3,5,11(22),12-pentaene-8,10,10-trione], the ring closure, yield after HPLC in data set [1] (from Cc1cn(CCCC2CNC(C)(C)C2)nc1S(=O)(=O)NC(=O)c1ccc(-n2ccc(OCCC3(C(F)(F)F)CC3)n2)nc1Cl, 14-membered ring, K2CO3/CsF/3A MS, 27.4 mM, 150.0 °C) amounted to 12%. Further, in data set [2], the EC50 is under 1000 nM and the “Max. Activity” value is “++ (++ is 30-60%)”.
